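Values below derive from 48-hour exposures of cells grown in 96-well plates, with endpoints linearly interpolated between the two concentrations bracketing the appropriate inhibition level. Abbreviation: GI50, concentration required for 50% inhibition of growth. TGI marks complete inhibition of growth.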

Some test systems named below: SF-539 CNS; EKVX NSCLC; OVCAR-5 ovarian; HCC-2998 colon; IGROV1 ovarian; SNB-19 CNS; A549 NSCLC; UO-31 renal; TK-10 renal; CAKI-1 renal.
Holding throughout (assay): NCI tumour cell line growth inhibition, 48 h

In the case of `Cc1cc([C@H](C)Nc2nccc(N3C(=O)OC[C@@H]3[C@H](C)F)n2)ncc1-c1ccnc(C(F)(F)F)c1`, the GI50 with SF-539 CNS was 61.3 µM; in the experiment on EKVX NSCLC, 19.2 µM; in the experiment on OVCAR-5 ovarian, greater than 100 µM; with HCC-2998 colon, 72.6 µM; in the experiment on IGROV1 ovarian, 25.9 µM; with SNB-19 CNS, 39 µM. The GI50 was 29.8 µM in the experiment on A549 NSCLC, 6.08 µM with UO-31 renal, 53 µM in the experiment with TK-10 renal and 27.8 µM in the experiment on CAKI-1 renal. The TGI in the experiment on SF-539 CNS, in the experiment on EKVX NSCLC, with OVCAR-5 ovarian, with HCC-2998 colon, in the experiment with IGROV1 ovarian and in the experiment on SNB-19 CNS was greater than 100 µM in each case. For the same compound, the TGI with A549 NSCLC, in the experiment on UO-31 renal, in the experiment on TK-10 renal and with CAKI-1 renal was greater than 100 µM throughout.

For the compound `CC(C)c1ccc2c(c1)c(SC(C)(C)C)c(CC(C)(C)C(=O)O)n2Cc1ccc(Cl)cc1`, the GI50 was 9.05 µM in the experiment on SF-539 CNS; 4.42 µM with EKVX NSCLC; 14.9 µM in the experiment with OVCAR-5 ovarian; 7.71 µM in the experiment with HCC-2998 colon; 10.5 µM in the experiment on IGROV1 ovarian; 8.45 µM in the experiment with SNB-19 CNS. Also, the GI50 with A549 NSCLC is 3.27 µM; in the experiment on UO-31 renal, 7.72 µM; with TK-10 renal, 15.2 µM; with CAKI-1 renal, 10.8 µM. Also, the TGI in the experiment on SF-539 CNS was determined as 21.8 µM; in the experiment on EKVX NSCLC it was 13 µM; with OVCAR-5 ovarian, 29.2 µM; with HCC-2998 colon, 20.4 µM; with IGROV1 ovarian, 23.5 µM; with SNB-19 CNS it was 22.7 µM. In addition, the TGI in the experiment with A549 NSCLC amounted to 14.1 µM; in the experiment with UO-31 renal, 20.7 µM; with TK-10 renal, 30.6 µM; with CAKI-1 renal it was 25.8 µM.

Consider `COc1ccc(-c2conc2-c2ccccc2)cc1`, for which the GI50 in the experiment with SF-539 CNS is 0.272 µM; in the experiment with EKVX NSCLC, 2.64 µM; with OVCAR-5 ovarian it was 0.832 µM; with HCC-2998 colon, 0.534 µM; in the experiment on IGROV1 ovarian, 0.498 µM; in the experiment with SNB-19 CNS it was 0.647 µM. Moreover, the GI50 was 0.502 µM in the experiment on A549 NSCLC, 0.64 µM with UO-31 renal, 15.3 µM in the experiment with TK-10 renal and 0.246 µM in the experiment on CAKI-1 renal. In addition, the TGI with SF-539 CNS is 3.87 µM; with EKVX NSCLC, greater than 100 µM; in the experiment with OVCAR-5 ovarian, greater than 100 µM; in the experiment with HCC-2998 colon it was 14.7 µM; with IGROV1 ovarian, greater than 100 µM; with SNB-19 CNS, greater than 100 µM. The TGI in the experiment with A549 NSCLC is greater than 100 µM; in the experiment on UO-31 renal, 40.9 µM; in the experiment with TK-10 renal it was greater than 100 µM; in the experiment with CAKI-1 renal it was greater than 100 µM.

In the case of `COc1ccc2c(c1)c(-c1cc(-c3cn(C)c4ccc(OC)cc34)[nH]n1)cn2C`, the GI50 with SF-539 CNS, with EKVX NSCLC, in the experiment with OVCAR-5 ovarian, in the experiment on HCC-2998 colon, in the experiment with IGROV1 ovarian and in the experiment on SNB-19 CNS was greater than 100 µM in each case. For the same compound, the GI50 in the experiment on A549 NSCLC, in the experiment with UO-31 renal, in the experiment with TK-10 renal and in the experiment on CAKI-1 renal was greater than 100 µM throughout. Further, the TGI in the experiment on SF-539 CNS, with EKVX NSCLC, in the experiment on OVCAR-5 ovarian, in the experiment on HCC-2998 colon, in the experiment with IGROV1 ovarian and with SNB-19 CNS was greater than 100 µM throughout. In addition, the TGI in the experiment with A549 NSCLC, in the experiment with UO-31 renal, in the experiment with TK-10 renal and in the experiment on CAKI-1 renal was greater than 100 µM in each case.

As for `NCCn1c2c(c3ccccc3c1=O)C(=O)c1ccccc1-2`, the GI50 with SF-539 CNS was 0.211 µM; with EKVX NSCLC, 1.48 µM; in the experiment with OVCAR-5 ovarian, 0.674 µM; in the experiment with HCC-2998 colon it was 0.329 µM; in the experiment on IGROV1 ovarian it was 0.592 µM; in the experiment with SNB-19 CNS, 0.251 µM. Also, the GI50 is 0.458 µM in the experiment with UO-31 renal, 0.778 µM in the experiment on TK-10 renal and 0.129 µM in the experiment on CAKI-1 renal. Further, the TGI in the experiment on SF-539 CNS was 1.06 µM; with EKVX NSCLC it was 4.48 µM; with OVCAR-5 ovarian, 2.57 µM; in the experiment with HCC-2998 colon, 1.64 µM; with IGROV1 ovarian, greater than 45.8 µM; with SNB-19 CNS, 2.09 µM. The TGI is 0.676 µM with A549 NSCLC, 5.33 µM in the experiment on UO-31 renal, 3.64 µM in the experiment on TK-10 renal and 0.887 µM in the experiment with CAKI-1 renal.

In the case of `C/C(N=NC(=S)N1CCCCCC1)=C1\C=CC=CN1O`, the TGI with SF-539 CNS was 48.2 µM; in the experiment with EKVX NSCLC it was greater than 94.4 µM; in the experiment with OVCAR-5 ovarian it was greater than 100 µM; in the experiment on HCC-2998 colon, greater than 100 µM; with IGROV1 ovarian it was greater than 53.8 µM; in the experiment with SNB-19 CNS, greater than 100 µM. The TGI is greater than 92.3 µM with A549 NSCLC, greater than 100 µM with UO-31 renal, greater than 100 µM in the experiment with TK-10 renal and greater than 89.3 µM in the experiment on CAKI-1 renal.

In the case of `COc1ccc(-c2nn3ncccc3c2-c2ccnc(Nc3cccc(C(F)(F)F)c3)n2)cc1`, the GI50 is 13.8 µM in the experiment with SF-539 CNS; 6.69 µM with EKVX NSCLC; 6.7 µM with OVCAR-5 ovarian; 5.33 µM with HCC-2998 colon; 4.39 µM in the experiment with IGROV1 ovarian; 12.5 µM in the experiment with SNB-19 CNS. The GI50 in the experiment on A549 NSCLC was 9.38 µM; in the experiment with UO-31 renal it was 4.83 µM; in the experiment with TK-10 renal, 8.49 µM; in the experiment with CAKI-1 renal, 7 µM. In addition, the TGI with SF-539 CNS was greater than 25 µM; in the experiment on EKVX NSCLC, greater than 25 µM; in the experiment with OVCAR-5 ovarian, greater than 25 µM; in the experiment with HCC-2998 colon it was 18.6 µM; in the experiment with IGROV1 ovarian, greater than 20.2 µM; with SNB-19 CNS, greater than 25 µM. Besides, the TGI in the experiment with A549 NSCLC is greater than 25 µM; in the experiment on UO-31 renal it was greater than 22.9 µM; with TK-10 renal, greater than 22.5 µM; in the experiment with CAKI-1 renal, greater than 25 µM.

In the case of `Cc1cc(Nc2cc(N3CCN(C)CC3)nc(C#Cc3ccccc3)n2)n[nH]1`, the GI50 in the experiment with SF-539 CNS is 2.79 µM; in the experiment with EKVX NSCLC, 11 µM; with OVCAR-5 ovarian, 3.58 µM; in the experiment on HCC-2998 colon it was 2.71 µM; with IGROV1 ovarian it was 1.13 µM; in the experiment on SNB-19 CNS, 5.59 µM. In addition, the GI50 is 2.81 µM in the experiment on A549 NSCLC, 1.07 µM with UO-31 renal, 0.897 µM in the experiment with TK-10 renal and 0.945 µM in the experiment on CAKI-1 renal. Moreover, the TGI with SF-539 CNS was found to be 10.8 µM; in the experiment with EKVX NSCLC, 23.4 µM; in the experiment with OVCAR-5 ovarian, 18.8 µM; with HCC-2998 colon, 13.1 µM; with IGROV1 ovarian, 6.05 µM; in the experiment with SNB-19 CNS, 19.5 µM. Further, the TGI in the experiment with A549 NSCLC is 13.3 µM; with UO-31 renal it was 7.28 µM; in the experiment on TK-10 renal, 6.79 µM; in the experiment on CAKI-1 renal it was 8.71 µM.

The values above are taken from PubChem BioAssay (NCI).
